According to patent publication US10414763B2 (CANCER RESEARCH TECHNOLOGY LIMITED, priority 2014, dated 2019):

Biological target: T1, full-length human PKCι (Homo sapiens, UniProt P41743)
T1 construct: Recombinant, full-length human PKCι expressed in Sf21 insect cells is also commercially available; purchased EMD Millipore; host or cells: Sf21 insect cells (baculovirus)
T1 sequence (P41743 1-596): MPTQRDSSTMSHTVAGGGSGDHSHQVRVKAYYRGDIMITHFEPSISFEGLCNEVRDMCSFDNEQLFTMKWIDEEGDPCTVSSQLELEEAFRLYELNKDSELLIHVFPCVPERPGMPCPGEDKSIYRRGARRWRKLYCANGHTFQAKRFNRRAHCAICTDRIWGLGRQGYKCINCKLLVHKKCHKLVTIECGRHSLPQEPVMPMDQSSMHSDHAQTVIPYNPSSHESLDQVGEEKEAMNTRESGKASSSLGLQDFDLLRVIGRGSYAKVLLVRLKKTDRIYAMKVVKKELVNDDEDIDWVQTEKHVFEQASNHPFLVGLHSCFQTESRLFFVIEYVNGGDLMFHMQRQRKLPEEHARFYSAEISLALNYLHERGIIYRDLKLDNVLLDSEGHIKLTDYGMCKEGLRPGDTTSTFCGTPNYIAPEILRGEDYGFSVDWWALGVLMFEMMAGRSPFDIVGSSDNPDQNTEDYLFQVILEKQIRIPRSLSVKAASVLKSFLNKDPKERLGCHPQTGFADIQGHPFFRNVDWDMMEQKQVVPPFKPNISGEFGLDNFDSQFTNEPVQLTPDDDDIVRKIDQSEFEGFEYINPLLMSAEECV
Experiment: PKCι IC50 IMAP fluorescence polarisation assay, full-length enzyme, 150 μM ATP
Format: biochemical
Details: read-out: IC50 in IMAP assay against full length PKCi at 150 μM ATP
Summary of the method: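 IMAP fluorescence polarisation kinase assay: 15 pM baculovirus-expressed human PKCiota with 100 nM FAM-pseudosubstrate peptide and 150 μM ATP, 1 h at 25 °C. IMAP detection reagent then 2 h at 25 °C before FP measurement. Inhibition referenced to no-compound and no-enzyme controls for IC50 fitting.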

| IC50 [nM] | Structure (SMILES) |
| --- | --- |
| < 100 | CC1(C)CNCCC1Nc1nc(-c2ccnc(Nc3ccccc3)c2)nc2cncc(C3CCC3)c12 (stereo not drawn) [Example 91, [5-Cyclobutyl-2-(2-phenylamino-pyridin-4-yl)-pyrido[3,4-d]pyrimidin-4-yl]-(3,3-dimethyl-piperidin-4-yl)-amine] |
| < 100 | CC1(C)CNCCC1Nc1nc(-c2ccnc(Nc3cccnc3F)c2)nc2cncc(C3CCC3)c12 (stereo not drawn) [Example 92, {5-Cyclobutyl-2-[2-(2-fluoro-pyridin-3-ylamino)-pyridin-4-yl]-pyrido[3,4-d]pyrimidin-4-yl}-(3,3-dimethyl-piperidin-4-yl)-amine] |
| < 100 | CC1(C)CNCCC1Nc1nc(-c2ccnc(Nc3c(F)cccc3F)c2)nc2cncc(C3CCC3)c12 (stereo not drawn) [Example 93, {5-Cyclobutyl-2-[2-(2,6-difluoro-phenylamino)-pyridin-4-yl]-pyrido[3,4-d]pyrimidin-4-yl}-(3,3-dimethyl-piperidin-4-yl)-amine] |
| < 100 | Cc1cc2c(-c3nc(N4CCCC5NCCCC54)c4c(C5CC5)cncc4n3)ccnc2[nH]1 (stereo not drawn) [Example 94, 5-Cyclopropyl-2-(2-methyl-1H-pyrrolo[2,3-b]pyridin-4-yl)-4-(octahydro-[1,5]naphthyridin-1-yl)-pyrido[3,4-d]pyrimidine] |
| < 100 | Cc1cc2c(-c3nc(N4CCCC5NCCCC54)c4c(C5CCC5)cncc4n3)ccnc2[nH]1 (stereo not drawn) [Example 95, 5-Cyclobutyl-2-(2-methyl-1H-pyrrolo[2,3-b]pyridin-4-yl)-4-(octahydro-[1,5]naphthyridin-1-yl)-pyrido[3,4-d]pyrimidine] |
| < 100 | CC1(C)CNCCC1Nc1nc(-c2ccnc(NCc3c(F)cccc3F)c2)nc2cncc(C3CCC3)c12 (stereo not drawn) [Example 96, {5-Cyclobutyl-2-[2-(2,6-difluoro-benzylamino)-pyridin-4-yl]-pyrido[3,4-d]pyrimidin-4-yl}-(3,3-dimethyl-piperidin-4-yl)-amine] |
| < 100 | Fc1ccc(F)c(Nc2cc(-c3nc(N4CCC5NCCC54)c4c(C5CCC5)cncc4n3)ccn2)n1 (stereo not drawn) [Example 97, {4-[5-Cyclobutyl-4-(hexahydro-pyrrolo [3,2-b]pyrrol-1-yl)-pyrido[3,4-d]pyrimidin-2-yl]-pyridin-2-yl}-(3,6-difluoro-pyridin-2-yl)-amine] |
| < 100 | Fc1cc(F)c(Nc2cc(-c3nc(N4CCC5NCCC54)c4c(C5CCC5)cncc4n3)ccn2)nc1F (stereo not drawn) [Example 98, {4-[5-Cyclobutyl-4-(hexahydro-pyrrolo[3,2-b]pyrrol-1-yl)-pyrido[3,4-d]pyrimidin-2-yl]-pyridin-2-yl}-(3,5,6-trifluoro-pyridin-2-yl)-amine] |
| < 100 | CNC(=O)c1cc2c(-c3nc(N4CCC5CNCCC54)c4c(C5CC5)cncc4n3)ccnc2[nH]1 (stereo not drawn) [Example 99, 4-[5-Cyclopropyl-4-(octahydro-pyrrolo[3,2-c]pyridin-1-yl)-pyrido[3,4-d]pyrimidin-2-yl]-1H-pyrrolo[2,3-b]pyridine-2-carboxylic acid methylamide] |
| < 100 | Cc1cc2c(-c3nc(NC4CCNCC4(C)C)c4c(C5CC5)cncc4n3)ccnc2[nH]1 (stereo not drawn) [Example 100, [5-Cyclopropyl-2-(2-methyl-1H-pyrrolo[2,3-b]pyridin-4-yl)-pyrido[3,4-d]pyrimidin-4-yl]-(3,3-dimethyl-piperidin-4-yl)-amine] |
| < 100 | Cc1cc2c(-c3nc(NC4CCNCC4(C)C)c4c(C5CCC5)cncc4n3)ccnc2[nH]1 (stereo not drawn) [Example 101, [5-Cyclobutyl-2-(2-methyl-1H-pyrrolo[2,3-b]pyridin-4-yl)-pyrido[3,4-d]pyrimidin-4-yl]-(3,3-dimethyl-piperidin-4-yl)-amine] |
| < 100 | c1ccc(Nc2cc(-c3nc(N4CCC5NCCC54)c4c(C5CCC5)cncc4n3)ccn2)cc1 (stereo not drawn) [Example 102, {4-[5-Cyclobutyl-4-(hexahydro-pyrrolo[3,2-b]pyrrol-1-yl)-pyrido[3,4-d]pyrimidin-2-yl]-pyndin-2-yl}-phenyl-amine] |
| < 100 | Clc1ccc(Cl)c(-c2cc3c(-c4nc(N5CCC6NCCC65)c5c(C6CC6)cncc5n4)ccnc3[nH]2)c1 (stereo not drawn) [Example 103, 5-Cyclopropyl-2-[2-(2,5-dichloro-phenyl)-1H-pyrrolo[2,3-b]pyridin-4-yl]-4-(hexahydro-pyrrolo[3,2-b]pyrrol-1-yl)-pyrido[3,4-d]pyrimidine] |

The next lines start with the compound.

| Structure (SMILES) | IC50 [nM] |
| --- | --- |
| CC1(C)CNCCC1Nc1nc(-c2ccnc(Nc3ncc(F)cc3F)c2)nc2cncc(C3CCC3)c12 (stereo not drawn) [Example 68, {5-Cyclobutyl-2-[2-(3,5-difluoro-pyridin-2-ylamino)-pyridin-4-yl]-pyrido[3,4-d]pyrimidin-4-yl}-(3,3-dimethyl-piperidin-4-yl)-amine] | < 100 |
| CC1(C)CNCCC1Nc1nc(-c2ccnc(Nc3ncccc3F)c2)nc2cncc(C3CCC3)c12 (stereo not drawn) [Example 70, {5-Cyclobutyl-2-[2-(3-fluoro-pyridin-2-ylamino)-pyridin-4-yl]-pyrido[3,4-d]pyrimidin-4-yl}-(3,3-dimethyl-piperidin-4-yl)-amine] | < 100 |
| CC1(C)CNCCC1Nc1nc(-c2ccnc(Nc3nc(F)c(F)cc3F)c2)nc2cncc(C3CCC3)c12 (stereo not drawn) [Example 71, {5-Cyclobutyl-2-[2-(3,5,6-trifluoro-pyridin-2-ylamino)-pyridin-4-yl]-pyrido[3,4-d]pyrimidin-4-yl}-(3,3-dimethyl-piperidin-4-yl)-amine] | < 100 |
| CC(C)(C)c1csc(Nc2cc(-c3nc(NC4CCNCC4(C)C)c4c(C5CCC5)cncc4n3)ccn2)n1 (stereo not drawn) [Example 72, {2-[2-(4-tert-Butyl-thiazol-2-ylamino)-pyridin-4-yl]-5-cyclobutyl-pyrido[3,4-d]pyrimidin-4-yl}-(3,3-dimethyl-piperidin-4-yl)-amine] | 100 to 1000 |
| OC1CNCCCC1Nc1nc(-c2ccnc3[nH]c4ccccc4c23)nc2cncc(C3CCC3)c12 (stereo not drawn) [Example 73, 4-[5-Cyclobutyl-2-(9H-pyrido[2,3-b]indol-4-yl)-pyrido[3,4-d]pyrimidin-4-ylamino]-azepan-3-ol] | < 100 |
| CN(c1nc(-c2ccnc3[nH]c4ccccc4c23)nc2cncc(C3CCC3)c12)C1CC(N)C1 (stereo not drawn) [Example 74, N-[5-Cyclobutyl-2-(9H-pyrido[2,3-b]indol-4-yl)-pyrido[3,4-d]pyrimidin-4-yl]-N-methyl-cyclobutane-1,3-diamine] | < 100 |
| CN(c1nc(-c2ccnc3[nH]c4ccccc4c23)nc2cncc(C3CCC3)c12)C1CC(N)C1 (stereo not drawn) [Example 75, N-[5-Cyclobutyl-2-(9H-pyrido[2,3-b]indol-4-yl)-pyrido[3,4-d]pyrimidin-4-yl]-N-methyl-cyclobutane-1,3-diamine] | < 100 |
| CN(c1nc(-c2ccnc3[nH]c4ccccc4c23)nc2cncc(C3CCC3)c12)C1CCC(N)C1 (stereo not drawn) [Example 78, N-[5-Cyclobutyl-2-(9H-pyrido[2,3-b]indol-4-yl)-pyrido[3,4-d]pyrimidin-4-yl]-N-methyl-cyclopentane-1,3-diamine] | < 100 |
| CNC(=O)c1cc2c(-c3nc(N4CCNCC4)c4c(C5CC5)cncc4n3)ccnc2[nH]1 [Example 79, 4-(5-Cyclopropyl-4-piperazin-1-yl-pyrido[3,4-d]pyrimidin-2-yl)-1H-pyrrolo[2,3-b]pyridine-2-carboxylic acid methylamide] | < 100 |
| CC1(C)CNCCC1Nc1nc(-c2ccnc(Nc3ccc4ccccc4n3)c2)nc2cncc(C3CCC3)c12 (stereo not drawn) [Example 86, {5-Cyclobutyl-2-[2-(quinolin-2-ylamino)-pyridin-4-yl]-pyrido[3,4-d]pyrimidin-4-yl}-(3,3-dimethyl-piperidin-4-yl)-amine] | < 100 |
| CC1(C)CNCCC1Nc1nc(-c2ccnc(Nc3nc(F)cc(F)c3F)c2)nc2cncc(C3CCC3)c12 (stereo not drawn) [Example 87, {5-Cyclobutyl-2-[2-(3,4,6-trifluoro-pyridin-2-ylamino)-pyridin-4-yl]-pyrido[3,4-d]pyrimidin-4-yl}-(3,3-dimethyl-piperidin-4-yl)-amine] | < 100 |
| CC1(C)CNCCC1Nc1nc(-c2ccnc(Nc3ncc(Cl)cc3F)c2)nc2cncc(C3CCC3)c12 (stereo not drawn) [Example 88, {2-[2-(5-Chloro-3-fluoro-pyridin-2-ylamino)-pyridin-4-yl]-5-cyclobutyl-pyrido[3,4-d]pyrimidin-4-yl}-(3,3-dimethyl-piperidin-4-yl)-amine] | < 100 |
| CC1(C)CNCCC1Nc1nc(-c2ccnc(Nc3nccc4ccccc34)c2)nc2cncc(C3CCC3)c12 (stereo not drawn) [Example 89, {5-Cyclobutyl-2-[2-(isoquinolin-1-ylamino)-pyridin-4-yl]-pyrido[3,4-d]pyrimidin-4-yl}-(3,3-dimethyl-piperidin-4-yl)-amine] | < 100 |
| CC1(C)CNCCC1Nc1nc(-c2ccnc(Nc3ccc(OC(F)(F)F)cc3)c2)nc2cncc(C3CCC3)c12 (stereo not drawn) [Example 90, {5-Cyclobutyl-2-[2-(4-trifluoromethoxy-phenylamino)-pyridin-4-yl]-pyrido[3,4-d]pyrimidin-4-yl}-(3,3-dimethyl-piperidin-4-yl)-amine] | 100 to 1000 |
